From US11795510B2, “Identification of epigenomic reprogramming in cancer and uses thereof” (The Johns Hopkins University, priority 2016, dated 2023) come the findings set out here.

For the assay, the system named is local-regional PDAC samples. The assay can be described thus: 3-D suspension tumorsphere assay, local-regional PDACs. In kind it is cell-based, human. On the procedure: 3-D matrigel assays were adapted from Cheung et al. (Control of alveolar differentiation by the lineage transcription factors GATA6 and HOPX inhibits lung adenocarcinoma metastasis. Cancer Cell 23, 725-38 (2013)). Briefly, 2-D cultures were trypsinized into single cells, 4,000cells/mL were suspended and thoroughly mixed in ice-cold DMEM containing 5% matrigel (BD systems) and 2% FBS (+/−DMSO/6AN as needed), 500 ul plated in quadruplicate into 24 well ultra-low attachment plates, and incubated for at least 7 days to allow tumor growth. Well-formed tumors were then counted and representative photographs taken with an EVOS instrument. 3-D suspension tumorsphere assays were performed with 20,000 starting cells/well in ultra-low attachment 6 well plates as described, and tumors counted/photographed after at least 7 days of tumor growth.

“Also recorded” adds a separate entry of the source.

In the case of `NC(=O)c1ccc(N)nc1` [6AN, 6-aminonicotinamide], the “tumor formation in 3-D suspension tumorsphere assays” value was “minimal effects; also recorded: did not interfere”.
